{
  "source": "patent US20100215631A1",
  "about": "“ANTI-INFLAMMATORY COMPOSITION COMPRISING GLYCINE AND LACTOFERRIN AND THE USE THEREOF” (priority 2006, published 2010)",
  "key": {"TNF-α producing cells": {"system": "TNF-α producing cells", "test": "Ex-vivo ELISpot of TNF-α producing spleen cells from supplemented mice with zymosan-induced ear inflammation (Example 2)", "assay_type": "in vivo", "details": "1 μg/ml LPS, after three days of oral supplementation", "method": "The spleen was removed and pushed through a cell strainer. Red blood cell lysis was performed in 5 ml of could lysis buffer (4.15 g NH4Cl, 0.5 g KHCO3 and 18.6 mg Na2EDTA in 1 liter water at pH 7,3) for 5 minutes. Cells were washed twice in could RPMI (Invitrogen, Merelbeke, Belgium) and after centrifugation diluted to a concentration of 1.10^7 cells/ml. TNF-α producing cells were detected by ELISpot assay in the absence or presence of 1 μg/ml lipopolysaccharide (Sigma) (example 2).\nSpleen cells were collected from mice with a zymosan-induced inflammation in the ear after three days of oral supplementation with water (=control), lactoferrin (LF), glycine or a combination of LF and glycine. The number of TNF-α producing cells was determined using an ELISpot assay. LF and glycine inhibit the LPS stimulated number of TNF producing cells by 92% and 97% respectively (back to not zymosan treated control levels). The combination of glycine and lactoferrin inhibited the number of TNF-α positive cells 50% below the […] injected control. This unexpected high rate of inhibition makes the combination of glycine with lactoferrin an excellent choice for the treatment of inflammatory diseases."}, "Balb/C mice": {"system": "Balb/C mice", "test": "Zymosan-induced ear swelling in an inflammatory mouse model (Example 1)", "assay_type": "in vivo", "details": "daily gavage 0.1 mg lactoferrin and/or 50 mg glycine, versus non-supplemented mice", "method": "Balb/C mice (8 weeks of age, Charles River, Maastricht, The Netherlands) were randomly assigned two control and three test groups and supplemented daily for three days with 0.1 mg lactoferrin (DMV, Veghel, The Netherlands), 50 mg glycine (Sigma, Zwijndrecht, The Netherlands) or a combination of both components (test groups 3, 4 and 5 respectively) or vehicle (control groups 1 and 2) was administered by gavage. At day two of the supplementation ear thickness was measured using a micrometer (Mitutoyo Digimatic, Veenendaal, The Netherlands) Subsequently 25 μl 0.5% zymosan (Sigma) in PBS (group 2-5) or vehicle (group 1) was injected subcutaneously in both ears. Ear thickness was measured 3, 6 and 24 hours (example 1) after injection after which the animals were sacrificed.\nIn mice injected in the ear with zymosan, lactoferrin (LF) and glycine (Gly) supplemented mice show a highest decrease in ear swelling when compared to non-supplemented mice, see Table 1. A clear synergistic effect of LF and Gly is observed."}},
  "data": [
    {"smiles": "NCC(=O)O", "note": "[Glycine, glycine]", "values": [
      {"measurement": "Inhibition of the LPS stimulated number of TNF producing cells", "setting": "TNF-α producing cells", "value": 97, "unit": "%"},
      {"measurement": "Decrease in ear swelling", "setting": "Balb/C mice; 3 hrs after zymosan injection in ears", "value": "10 ± 16"},
      {"measurement": "Decrease in ear swelling", "setting": "Balb/C mice; 6 hrs after zymosan injection in ears", "value": "28 ± 20"}
    ]}
  ]
}
